The subject of one experiment is vTreg53 TCR. Put plainly: vTreg53 TCR tetramer staining of single peptide-A^b yeast clone. Type of experiment: binding, murine. The conditions noted are these: 500 nM final tetramer concentration. As to the method:
Figure 2. Identification of surrogate peptides recognized by the vTreg53 TCR. (A) The vTreg53 TCR was used to screen and isolate the peptide-MHC yeast display. vTreg53 TCR tetramer staining (500 nM of TCR-SA) together with c-Myc staining is shown for the naïve library and four consecutive rounds of selection. […] (C) Positional frequency representation from the deep sequencing of the third round of selection with vTreg53. (D) Positional frequency matrix based on the deep sequencing of the fourth round of the peptide-MHC yeast selection. […] Data shown are representative of at least two independent experiments. Figure 2—figure supplement 1. Evolution of peptide-Ab yeast display. […] TEXT PRINTED IN THE PICTURE: (B) Fat7: Fraction: 0.596 | (B) TMYKGPHAVAAFT: Fraction: 0.369 | (B) LMFKGPHAVAAFT: Fraction: 0.029 | (B) FTYKNPRPVAATG: Fraction: 0.006 | (B) Fat15: Fraction: 0.000 | (B) TMYKNPRPVAATG: Fraction: 0.000 | (B) TMYKNPRPVAATG: Fraction: 0.000 DOUBTS OF THE COPYIST ABOUT THIS PICTURE: Panel B: the Fraction values are shares of sequencing reads from a selection, so it is uncertain whether they count as a result for a substance. […]
Yeast were passaged in SDCAA and induced with SGCAA and selected with streptavidin (SA) - coated magnetic MACS beads (Miltenyi) coated with biotinylated TCR. […] Peptide-A^b surface expression was monitored with anti-c-myc (Cell Signaling) antibody staining. […]

For a further experiment, the system named is endogenous Treg cells. Put plainly: Endogenous Fat1562/A^b tetramer^+ Treg cells and scTCR-seq after immunization of wild-type B6 mice. Type of experiment: in vivo, mouse. The source says:
We next investigated whether Fat1562 immunization of wild-type B6 mice would elicit expansion of particular Treg clones in VAT, and whether their TCRs would resemble the vTreg53 TCR. 16–20 week-old B6 mice were immunized with Fat1562 using the prime and boost scheme (Figure 4—figure supplement 1A), and the Fat1562-reactive CD4^+ T cells were characterized by staining with the Fat1562/A^b-PE tetramer. […] We then sorted individual Fat1562/A^b tetramer^+ Treg cells from the spleen and VAT of these 3 mice into 96-well plates, and determined the sequences of their TCR-β and TCR-α complementarity-determining region (CDR)3 s. […] Within each mouse, the Spl/LNs and VAT Treg clones had the same CDR3α and CDR3β. […] Therefore, although with some degree of variability, Fat1562 was able to expand an endogenous Treg population that highly resembled the original vTreg53 VAT-Treg clone.
Foxp3^+CD4^+ TCRβ^+ Fat1562/A^b-PE^+ Treg cells from VAT or pooled Spl/LN of 16–20 week-old Foxp3-GFP mice were first sorted in bulk before resorting as individual cells using a MoFlo (Beckman Coulter) into wells of 96-well PCR plates containing the reverse transcriptase reaction mix, and cDNA was prepared as described previously ([Burzyn et al., 2013]). Extreme caution was taken to minimize contamination of wells. […]

Where no end group is shown, it is not given here.

For LMFKGPHAVQAVG [Fat7], the “vTreg53 TCR-SA tetramer staining” value with vTreg53 TCR is recorded as “positive”.

In the case of TMYKNPRPMAATG [Fat1562], the “mice with detectable expansion of Fat1562/A^b tetramer^+ Treg population” value with endogenous Treg cells (out of the 10 mice immunized, Spl/LN and VAT, 16–20 week-old B6) is reported as “three”. In addition, the “clonality of Fat1562/A^b tetramer^+ Treg population” value in the experiment with endogenous Treg cells (three mice, scTCR-seq of CDR3α/β) is recorded as “almost entirely monoclonal”.

Values taken from publication PMC7440915, “Discovery of surrogate agonists for visceral fat Treg cells that modulate metabolic indices in vivo” (eLife, 2020).
